Assay [1] has as its target T1, Human immunodeficiency virus type 1 integrase (Human immunodeficiency virus 1, UniProt Q7ZJM1). The assay is described as follows: Concentration required for inhibition of HIV-1 integrase mediated 3'-end processing.
For assay [2], the target named is T1, Human immunodeficiency virus type 1 integrase. The experiment in a line: Concentration required for inhibition of HIV-1 integrase mediated strand transfer.

T1 sequence (Q7ZJM1 whole entry): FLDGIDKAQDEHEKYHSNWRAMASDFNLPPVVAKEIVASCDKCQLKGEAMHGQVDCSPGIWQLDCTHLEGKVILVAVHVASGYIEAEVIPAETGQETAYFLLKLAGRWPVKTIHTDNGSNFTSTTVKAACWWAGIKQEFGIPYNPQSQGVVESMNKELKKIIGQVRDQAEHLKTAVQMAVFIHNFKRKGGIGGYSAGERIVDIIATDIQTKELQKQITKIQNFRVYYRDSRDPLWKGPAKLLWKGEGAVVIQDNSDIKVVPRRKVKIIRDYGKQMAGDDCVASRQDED

For orientation: IC50 means the midpoint of a concentration-inhibition curve. A lower IC50 goes with higher potency. For the compound `CC[C@H](C)[C@H](N)C(=O)N[C@@H](CC(C)C)C(=O)N1CCC[C@H]1C(=O)N[C@@H](Cc1c[nH]c2ccccc12)C(=O)N[C@@H](CCCCN)C(=O)N[C@@H](Cc1c[nH]c2ccccc12)C(=O)N1CCC[C@H]1C(=O)N[C@@H](Cc1c[nH]c2ccccc12)C(=O)N[C@@H](Cc1c[nH]c2ccccc12)C(=O)N1CCC[C@H]1C(=O)N[C@@H](Cc1c[nH]c2ccccc12)C(=O)N1CCC[C@H]1C(=O)N1CCC[C@H]1C(=O)NCCCCC(NC(=O)[C@@H]1CCCN1C(=O)[C@@H]1CCCN1C(=O)[C@H](Cc1c[nH]c2ccccc12)NC(=O)[C@@H]1CCCN1C(=O)[C@H](Cc1c[nH]c2ccccc12)NC(=O)[C@H](Cc1c[nH]c2ccccc12)NC(=O)[C@@H]1CCCN1C(=O)[C@H](Cc1c[nH]c2ccccc12)NC(=O)[C@H](CCCCN)NC(=O)[C@H](Cc1c[nH]c2ccccc12)NC(=O)[C@@H]1CCCN1C(=O)[C@H](CC(C)C)NC(=O)[C@@H](N)[C@@H](C)CC)C(=O)NCCCCC(NC(=O)C(CCCCNC(=O)[C@@H]1CCCN1C(=O)[C@@H]1CCCN1C(=O)[C@H](Cc1c[nH]c2ccccc12)NC(=O)[C@@H]1CCCN1C(=O)[C@H](Cc1c[nH]c2ccccc12)NC(=O)[C@H](Cc1c[nH]c2ccccc12)NC(=O)[C@@H]1CCCN1C(=O)[C@H](Cc1c[nH]c2ccccc12)NC(=O)[C@H](CCCCN)NC(=O)[C@H](Cc1c[nH]c2ccccc12)NC(=O)[C@@H]1CCCN1C(=O)[C@H](CC(C)C)NC(=O)[C@H](N)[C@@H](C)CC)NC(=O)[C@@H]1CCCN1C(=O)[C@@H]1CCCN1C(=O)[C@H](Cc1c[nH]c2ccccc12)NC(=O)[C@@H]1CCCN1C(=O)[C@H](Cc1c[nH]c2ccccc12)NC(=O)[C@H](Cc1c[nH]c2ccccc12)NC(=O)[C@@H]1CCCN1C(=O)[C@H](Cc1c[nH]c2ccccc12)NC(=O)[C@H](CCCCN)NC(=O)[C@H](Cc1c[nH]c2ccccc12)NC(=O)[C@@H]1CCCN1C(=O)[C@H](CC(C)C)NC(=O)[C@@H](N)[C@@H](C)CC)C(N)=O` (stereo not given in full), the IC50 in assay [1] and in assay [2] was 0.6 µM throughout.

For the compound H-LPWKWPWWPWPP-NH2, the results for the IC50 in assay [1] and in assay [2] were 185 µM and 215 µM, respectively.

Consider H-ILPWKWPWWPWPP-NH2, for which the concentration for half-maximal inhibition (IC50) was 16 µM in assay [1] and 13 µM in assay [2].

Turning to `CC[C@H](C)[C@@H](N)C(=O)N[C@H](CC(C)C)C(=O)N1CCC[C@@H]1C(=O)N[C@H](Cc1c[nH]c2ccccc12)C(=O)N[C@H](CCCCN)C(=O)N[C@H](Cc1c[nH]c2ccccc12)C(=O)N1CCC[C@@H]1C(=O)N[C@H](Cc1c[nH]c2ccccc12)C(=O)N[C@H](Cc1c[nH]c2ccccc12)C(=O)N1CCC[C@@H]1C(=O)N[C@H](Cc1c[nH]c2ccccc12)C(=O)N1CCC[C@@H]1C(=O)N1CCC[C@@H]1C(=O)NCCCCC(NC(=O)[C@H]1CCCN1C(=O)[C@H]1CCCN1C(=O)[C@@H](Cc1c[nH]c2ccccc12)NC(=O)[C@H]1CCCN1C(=O)[C@@H](Cc1c[nH]c2ccccc12)NC(=O)[C@@H](Cc1c[nH]c2ccccc12)NC(=O)[C@H]1CCCN1C(=O)[C@@H](Cc1c[nH]c2ccccc12)NC(=O)[C@@H](CCCCN)NC(=O)[C@@H](Cc1c[nH]c2ccccc12)NC(=O)[C@H]1CCCN1C(=O)[C@@H](CC(C)C)NC(=O)[C@H](N)[C@@H](C)CC)C(N)=O` (stereo not given in full), the IC50 in assay [1] and in assay [2] was 2.3 µM throughout.

As to `CC[C@H](C)[C@H](N)C(=O)N[C@@H](CC(C)C)C(=O)N1CCC[C@H]1C(=O)N[C@@H](Cc1c[nH]c2ccccc12)C(=O)N[C@@H](CCCCN)C(=O)N[C@@H](Cc1c[nH]c2ccccc12)C(=O)N1CCC[C@H]1C(=O)N[C@@H](Cc1c[nH]c2ccccc12)C(=O)N[C@@H](Cc1c[nH]c2ccccc12)C(=O)N1CCC[C@H]1C(=O)N[C@@H](Cc1c[nH]c2ccccc12)C(=O)N[C@@H](CCCN=C(N)N)C(=O)N[C@@H](CCCN=C(N)N)C(N)=O` [Indolicidin], the half-inhibitory concentration (IC50) in assay [1] was found to be 60 µM; in assay [2], 57 µM.

On to H-ILAWKWAWWAWPP-NH2, for which the IC50 in assay [1] was determined as 54 µM; in assay [2], 41 µM.

In the case of H-ILPWKWPWWPWP-NH2, the values for the IC50 in assay [1] and in assay [2] were 180 µM and 80 µM, respectively.

For the compound `CC[C@H](C)[C@H](N)C(=O)N[C@@H](CC(C)C)C(=O)N1CCC[C@H]1C(=O)N[C@@H](Cc1c[nH]c2ccccc12)C(=O)N[C@@H](CCCCN)C(=O)N[C@@H](Cc1c[nH]c2ccccc12)C(=O)N1CCC[C@H]1C(=O)N[C@@H](Cc1c[nH]c2ccccc12)C(=O)N[C@@H](Cc1c[nH]c2ccccc12)C(=O)N1CCC[C@H]1C(=O)N[C@@H](Cc1c[nH]c2ccccc12)C(=O)N1CCC[C@H]1C(=O)N1CCC[C@H]1C(=O)NCCCCC(NC(=O)[C@@H]1CCCN1C(=O)[C@@H]1CCCN1C(=O)[C@H](Cc1c[nH]c2ccccc12)NC(=O)[C@@H]1CCCN1C(=O)[C@H](Cc1c[nH]c2ccccc12)NC(=O)[C@H](Cc1c[nH]c2ccccc12)NC(=O)[C@@H]1CCCN1C(=O)[C@H](Cc1c[nH]c2ccccc12)NC(=O)[C@H](CCCCN)NC(=O)[C@H](Cc1c[nH]c2ccccc12)NC(=O)[C@@H]1CCCN1C(=O)[C@H](CC(C)C)NC(=O)[C@@H](N)[C@@H](C)CC)C(N)=O` (stereo not given in full), the IC50 in assay [1] was 2.8 µM; in assay [2], 4.9 µM.

Consider `CC[C@H](C)[C@H](N)C(=O)N[C@@H](CC(C)C)C(=O)N1CCC[C@H]1C(=O)N[C@@H](Cc1c[nH]c2ccccc12)C(=O)NCC(=O)N[C@@H](Cc1c[nH]c2ccccc12)C(=O)N1CCC[C@H]1C(=O)N[C@@H](Cc1c[nH]c2ccccc12)C(=O)N[C@@H](Cc1c[nH]c2ccccc12)C(=O)N1CCC[C@H]1C(=O)N[C@@H](Cc1c[nH]c2ccccc12)C(=O)N[C@@H](CCCN=C(N)N)C(=O)N[C@@H](CCCN=C(N)N)C(N)=O`, for which the IC50 is 49 µM in assay [1] and 19 µM in assay [2].

As to H-ILPWGWPWWPWPP-NH2, the IC50 in assay [1] and in assay [2] was more than 333 µM in each case.

For the origin of these results see ChEMBL document CHEMBL1138028, “Synthesis and HIV-1 integrase inhibitory activity of dimeric and tetrameric analogs of indolicidin” (Bioorg Med Chem Lett, 2004).
